# Assay results as given in ChEMBL document CHEMBL4043168, “The design and SAR of a novel series of 2-aminopyridine based LRRK2 inhibitors” (Bioorg Med Chem Lett, 2017).
# Legend:
# [1] = target: Cyclin-dependent kinase 2 (Homo sapiens) (UniProt P24941); assay: Inhibition of CDK2 labeling at conserved Lys1 (LTGEVVALKK) in human PBMC at 1 uM
# [2] = target: Serine/threonine-protein kinase/endoribonuclease IRE1 (Homo sapiens) (UniProt O75460); assay: Inhibition of IRE1 conserved Lys2 (DLKPHNILISMPNAHGK) in human PBMC at 1 uM
# [3] = target: Mitogen-activated protein kinase kinase kinase 1 (Homo sapiens) (UniProt Q13233); assay: Inhibition of MAP3K1 conserved Lys2 (DVKGANLLIDSTGQR) in human PBMC at 1 uM
# [4] = target: MAP kinase-activated protein kinase 3 (Homo sapiens) (UniProt Q16644); assay: Inhibition of MAPKAPK3 ATP binding site (QVLGLGVNGKVLECFHR) in human PBMC at 1 uM
# [5] = target: T1, Phosphatidylinositol 4,5-bisphosphate 3-kinase catalytic subunit delta isoform (Homo sapiens) (UniProt O00329); assay: Inhibition of PIK3CD ATP binding site (VNWLAHNVSKDNRQ) in human PBMC at 1 uM
# T1 sequence (whole entry): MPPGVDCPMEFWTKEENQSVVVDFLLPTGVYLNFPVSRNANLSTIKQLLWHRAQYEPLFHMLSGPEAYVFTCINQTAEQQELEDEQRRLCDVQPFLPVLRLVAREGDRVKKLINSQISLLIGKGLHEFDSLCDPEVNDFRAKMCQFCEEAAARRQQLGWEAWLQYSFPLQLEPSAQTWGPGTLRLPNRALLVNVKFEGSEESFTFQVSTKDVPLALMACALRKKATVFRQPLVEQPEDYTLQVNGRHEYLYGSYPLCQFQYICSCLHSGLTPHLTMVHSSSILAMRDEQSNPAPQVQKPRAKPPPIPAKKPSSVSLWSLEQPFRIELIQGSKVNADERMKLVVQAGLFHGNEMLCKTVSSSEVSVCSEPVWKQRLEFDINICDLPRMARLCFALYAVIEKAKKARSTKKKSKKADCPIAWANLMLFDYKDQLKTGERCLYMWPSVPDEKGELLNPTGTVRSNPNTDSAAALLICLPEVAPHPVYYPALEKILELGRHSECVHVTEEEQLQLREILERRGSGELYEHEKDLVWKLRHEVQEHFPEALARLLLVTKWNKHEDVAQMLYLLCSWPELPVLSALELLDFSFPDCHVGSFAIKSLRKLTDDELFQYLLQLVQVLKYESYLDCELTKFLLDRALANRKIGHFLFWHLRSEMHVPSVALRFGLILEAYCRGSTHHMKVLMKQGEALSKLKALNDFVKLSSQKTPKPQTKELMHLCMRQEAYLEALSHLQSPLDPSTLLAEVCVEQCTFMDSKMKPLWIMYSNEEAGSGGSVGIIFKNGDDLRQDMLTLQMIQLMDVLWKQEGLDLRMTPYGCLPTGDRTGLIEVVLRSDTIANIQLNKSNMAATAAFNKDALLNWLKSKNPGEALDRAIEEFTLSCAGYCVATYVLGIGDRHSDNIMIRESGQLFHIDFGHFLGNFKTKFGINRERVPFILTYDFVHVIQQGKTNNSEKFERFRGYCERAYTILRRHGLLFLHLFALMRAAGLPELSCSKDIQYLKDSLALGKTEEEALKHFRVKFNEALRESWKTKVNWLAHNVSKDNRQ
# [6] = target: Interferon-induced, double-stranded RNA-activated protein kinase (Homo sapiens) (UniProt P19525); assay: Inhibition of PKR activation Loop (IGDFGLVTSLKNDGKR) in human PBMC at 1 uM
# [7] = target: STE20-like serine/threonine-protein kinase (Homo sapiens) (UniProt Q9H2G2); assay: Inhibition of SLK conserved Lys1 (AQNKETSVLAAAKVIDTK) in human PBMC at 1 uM
# [8] = target: Serine/threonine-protein kinase SIK2 (Homo sapiens) (UniProt Q9H0K1); assay: Inhibition of QIK conserved Lys1 (EVAIKIIDK) in human PBMC at 0.1 uM
# [9] = target: Mitogen-activated protein kinase kinase kinase 11 (Homo sapiens) (UniProt Q16584); assay: Inhibition of MLK3 conserved Lys2 (DLKSNNILLLQPIESDDMEHK) in human PBMC at 0.1 uM
# [10] = target: T2, STE20-related kinase adapter protein alpha (Homo sapiens) (UniProt Q7RTN6); assay: Inhibition of STLK5 activation loop (YSVKVLPWLSPEVLQQNLQGYDAK) in human PBMC at 0.1 uM
# T2 sequence (whole entry): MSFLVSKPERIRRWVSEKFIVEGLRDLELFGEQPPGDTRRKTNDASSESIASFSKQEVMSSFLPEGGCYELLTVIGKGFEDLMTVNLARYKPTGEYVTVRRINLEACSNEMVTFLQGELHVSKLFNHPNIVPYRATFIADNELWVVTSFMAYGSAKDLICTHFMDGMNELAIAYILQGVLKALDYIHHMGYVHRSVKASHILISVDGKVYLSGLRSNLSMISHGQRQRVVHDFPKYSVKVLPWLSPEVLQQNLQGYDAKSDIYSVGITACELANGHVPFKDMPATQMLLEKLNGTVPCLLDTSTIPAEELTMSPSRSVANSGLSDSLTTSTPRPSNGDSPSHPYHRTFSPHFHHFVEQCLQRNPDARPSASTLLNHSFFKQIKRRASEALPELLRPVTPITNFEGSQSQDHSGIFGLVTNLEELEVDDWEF
# [11] = target: T2, STE20-related kinase adapter protein alpha (Homo sapiens); assay: Inhibition of STLK5 conserved Lys2 (SVKASHILISVDGK) in human PBMC at 0.1 uM
# Mitogen-activated protein kinase kinase kinase 11 (Homo sapiens), sequence (Q16584 whole entry, looked up): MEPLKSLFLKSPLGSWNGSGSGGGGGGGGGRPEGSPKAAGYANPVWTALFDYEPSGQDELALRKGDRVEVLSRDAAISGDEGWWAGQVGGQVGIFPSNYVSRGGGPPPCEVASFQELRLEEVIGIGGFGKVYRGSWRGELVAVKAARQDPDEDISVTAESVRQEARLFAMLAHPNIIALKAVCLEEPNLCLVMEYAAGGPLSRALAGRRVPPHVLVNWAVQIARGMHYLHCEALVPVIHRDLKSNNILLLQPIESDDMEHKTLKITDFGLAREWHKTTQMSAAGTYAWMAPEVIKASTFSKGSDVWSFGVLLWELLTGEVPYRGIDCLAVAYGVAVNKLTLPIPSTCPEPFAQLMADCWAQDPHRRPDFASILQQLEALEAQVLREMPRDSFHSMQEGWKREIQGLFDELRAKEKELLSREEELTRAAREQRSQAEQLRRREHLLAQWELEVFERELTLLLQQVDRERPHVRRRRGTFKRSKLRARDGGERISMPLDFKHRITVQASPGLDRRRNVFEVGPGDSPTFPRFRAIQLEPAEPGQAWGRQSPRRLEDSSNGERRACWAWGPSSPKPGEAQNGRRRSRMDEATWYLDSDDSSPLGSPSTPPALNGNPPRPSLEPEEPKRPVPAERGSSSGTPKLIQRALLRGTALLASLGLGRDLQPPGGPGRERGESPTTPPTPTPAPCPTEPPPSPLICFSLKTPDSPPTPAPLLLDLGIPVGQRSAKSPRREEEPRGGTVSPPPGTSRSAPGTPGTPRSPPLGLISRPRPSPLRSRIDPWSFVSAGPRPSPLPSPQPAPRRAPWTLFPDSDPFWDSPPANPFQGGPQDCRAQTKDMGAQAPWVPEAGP
# Mitogen-activated protein kinase kinase kinase 1 (Homo sapiens), sequence (Q13233 whole entry): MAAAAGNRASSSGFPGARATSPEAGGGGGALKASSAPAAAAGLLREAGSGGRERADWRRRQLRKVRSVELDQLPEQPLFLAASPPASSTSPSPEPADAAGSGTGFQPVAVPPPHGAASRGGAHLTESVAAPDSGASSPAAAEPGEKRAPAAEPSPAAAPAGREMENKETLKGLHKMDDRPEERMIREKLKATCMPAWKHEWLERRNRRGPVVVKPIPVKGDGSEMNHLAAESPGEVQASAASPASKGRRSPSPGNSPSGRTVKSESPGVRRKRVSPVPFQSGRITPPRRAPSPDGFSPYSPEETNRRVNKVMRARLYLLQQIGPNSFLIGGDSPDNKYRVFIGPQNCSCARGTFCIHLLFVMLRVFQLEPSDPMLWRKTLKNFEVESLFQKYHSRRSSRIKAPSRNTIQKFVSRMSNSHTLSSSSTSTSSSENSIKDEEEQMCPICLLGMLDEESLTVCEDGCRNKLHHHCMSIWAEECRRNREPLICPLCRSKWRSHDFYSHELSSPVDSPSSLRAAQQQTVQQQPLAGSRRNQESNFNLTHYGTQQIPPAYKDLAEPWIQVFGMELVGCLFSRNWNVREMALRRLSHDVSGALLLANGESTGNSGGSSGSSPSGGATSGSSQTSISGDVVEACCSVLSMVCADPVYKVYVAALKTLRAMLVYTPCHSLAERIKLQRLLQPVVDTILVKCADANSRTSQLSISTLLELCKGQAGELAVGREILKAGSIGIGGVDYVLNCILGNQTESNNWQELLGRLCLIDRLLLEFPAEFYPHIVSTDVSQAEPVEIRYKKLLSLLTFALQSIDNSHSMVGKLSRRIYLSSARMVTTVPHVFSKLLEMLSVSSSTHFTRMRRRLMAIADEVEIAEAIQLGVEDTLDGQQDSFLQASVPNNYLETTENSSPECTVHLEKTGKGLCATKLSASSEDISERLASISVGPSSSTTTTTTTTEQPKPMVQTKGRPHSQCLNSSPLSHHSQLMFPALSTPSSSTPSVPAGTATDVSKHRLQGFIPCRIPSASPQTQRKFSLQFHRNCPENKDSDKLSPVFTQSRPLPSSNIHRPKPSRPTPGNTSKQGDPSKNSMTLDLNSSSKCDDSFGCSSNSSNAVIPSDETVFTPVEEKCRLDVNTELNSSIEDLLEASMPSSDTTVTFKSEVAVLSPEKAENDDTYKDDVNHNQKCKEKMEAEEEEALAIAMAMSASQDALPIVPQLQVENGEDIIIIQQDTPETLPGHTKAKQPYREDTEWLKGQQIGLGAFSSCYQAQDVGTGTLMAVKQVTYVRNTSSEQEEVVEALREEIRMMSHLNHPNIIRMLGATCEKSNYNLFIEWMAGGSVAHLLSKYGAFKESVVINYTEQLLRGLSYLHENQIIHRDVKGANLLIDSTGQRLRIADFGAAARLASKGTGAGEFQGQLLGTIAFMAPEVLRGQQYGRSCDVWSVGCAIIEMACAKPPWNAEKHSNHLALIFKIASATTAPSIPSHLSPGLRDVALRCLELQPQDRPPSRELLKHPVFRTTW
# STE20-like serine/threonine-protein kinase (Homo sapiens), sequence (Q9H2G2 whole entry, looked up): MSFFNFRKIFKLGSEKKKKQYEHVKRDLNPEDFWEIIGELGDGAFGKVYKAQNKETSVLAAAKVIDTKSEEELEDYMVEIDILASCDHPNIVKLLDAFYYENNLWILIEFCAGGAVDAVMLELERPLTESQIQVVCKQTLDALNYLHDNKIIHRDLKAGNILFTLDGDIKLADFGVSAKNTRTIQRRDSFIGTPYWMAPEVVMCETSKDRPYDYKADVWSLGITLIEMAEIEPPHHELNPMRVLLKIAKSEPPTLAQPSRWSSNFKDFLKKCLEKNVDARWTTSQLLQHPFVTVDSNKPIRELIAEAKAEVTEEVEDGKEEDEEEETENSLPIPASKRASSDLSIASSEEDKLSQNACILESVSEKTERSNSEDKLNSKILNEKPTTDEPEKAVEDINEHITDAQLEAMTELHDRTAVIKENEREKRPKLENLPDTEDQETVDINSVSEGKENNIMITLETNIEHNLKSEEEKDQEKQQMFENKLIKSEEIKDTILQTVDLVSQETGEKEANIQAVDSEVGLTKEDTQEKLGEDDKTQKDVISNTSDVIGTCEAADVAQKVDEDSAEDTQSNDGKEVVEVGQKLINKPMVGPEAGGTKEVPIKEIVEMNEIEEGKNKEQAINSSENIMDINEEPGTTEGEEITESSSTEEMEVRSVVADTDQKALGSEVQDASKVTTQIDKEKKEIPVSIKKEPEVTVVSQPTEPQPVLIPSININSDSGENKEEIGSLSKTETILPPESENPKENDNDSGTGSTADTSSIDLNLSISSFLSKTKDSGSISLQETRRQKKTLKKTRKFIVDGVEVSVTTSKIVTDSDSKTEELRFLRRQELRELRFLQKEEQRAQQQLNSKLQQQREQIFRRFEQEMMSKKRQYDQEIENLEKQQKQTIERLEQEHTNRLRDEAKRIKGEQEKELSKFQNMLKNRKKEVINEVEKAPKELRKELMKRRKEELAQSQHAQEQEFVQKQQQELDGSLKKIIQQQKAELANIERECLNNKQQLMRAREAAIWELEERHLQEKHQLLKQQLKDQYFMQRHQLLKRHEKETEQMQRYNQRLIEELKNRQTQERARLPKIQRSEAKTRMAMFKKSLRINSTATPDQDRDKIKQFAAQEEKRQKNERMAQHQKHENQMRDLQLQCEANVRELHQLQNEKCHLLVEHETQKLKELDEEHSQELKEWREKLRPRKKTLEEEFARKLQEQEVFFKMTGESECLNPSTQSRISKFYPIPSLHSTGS
# MAP kinase-activated protein kinase 3 (Homo sapiens), sequence (Q16644 whole entry, looked up, canonical isoform): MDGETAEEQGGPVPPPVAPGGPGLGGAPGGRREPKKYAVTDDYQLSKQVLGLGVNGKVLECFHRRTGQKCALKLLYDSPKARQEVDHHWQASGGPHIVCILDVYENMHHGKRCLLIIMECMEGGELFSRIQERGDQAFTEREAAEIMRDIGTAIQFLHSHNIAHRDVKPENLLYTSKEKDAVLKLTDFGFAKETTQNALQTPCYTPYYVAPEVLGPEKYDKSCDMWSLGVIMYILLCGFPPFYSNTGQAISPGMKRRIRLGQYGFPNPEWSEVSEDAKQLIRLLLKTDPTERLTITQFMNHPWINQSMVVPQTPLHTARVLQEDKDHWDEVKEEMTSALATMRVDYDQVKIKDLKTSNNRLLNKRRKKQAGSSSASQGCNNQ
# Serine/threonine-protein kinase SIK2 (Homo sapiens), sequence (Q9H0K1 whole entry, looked up): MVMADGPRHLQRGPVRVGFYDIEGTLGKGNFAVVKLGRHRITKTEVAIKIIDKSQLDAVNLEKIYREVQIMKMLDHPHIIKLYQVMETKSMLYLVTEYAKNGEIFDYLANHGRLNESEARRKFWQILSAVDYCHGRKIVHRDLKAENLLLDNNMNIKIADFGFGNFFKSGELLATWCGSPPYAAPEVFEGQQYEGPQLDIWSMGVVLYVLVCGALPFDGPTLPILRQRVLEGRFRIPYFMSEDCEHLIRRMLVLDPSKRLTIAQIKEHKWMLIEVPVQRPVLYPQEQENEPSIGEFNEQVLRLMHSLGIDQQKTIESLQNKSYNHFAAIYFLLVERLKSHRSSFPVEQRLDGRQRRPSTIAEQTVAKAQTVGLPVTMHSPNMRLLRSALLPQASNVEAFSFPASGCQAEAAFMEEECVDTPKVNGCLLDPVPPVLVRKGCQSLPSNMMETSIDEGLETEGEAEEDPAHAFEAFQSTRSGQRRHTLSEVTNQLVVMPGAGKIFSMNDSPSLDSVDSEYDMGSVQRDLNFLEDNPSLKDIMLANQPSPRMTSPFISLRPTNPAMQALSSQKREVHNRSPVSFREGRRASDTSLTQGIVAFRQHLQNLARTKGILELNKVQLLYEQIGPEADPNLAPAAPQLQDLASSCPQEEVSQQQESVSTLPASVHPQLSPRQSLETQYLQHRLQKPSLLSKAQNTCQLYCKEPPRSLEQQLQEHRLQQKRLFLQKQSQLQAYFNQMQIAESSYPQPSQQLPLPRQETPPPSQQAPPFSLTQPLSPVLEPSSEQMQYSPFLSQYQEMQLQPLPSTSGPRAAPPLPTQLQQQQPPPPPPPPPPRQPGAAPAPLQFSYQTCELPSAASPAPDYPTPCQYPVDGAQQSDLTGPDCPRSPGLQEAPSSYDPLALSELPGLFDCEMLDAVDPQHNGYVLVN
smiles,measurement,setting,value
CC(C)n1cc(-c2cc(-c3ccc(CN4CCOCC4)cc3)cnc2N)nn1,inhibition,[1],11.3%
same,inhibition,[2],26.6%
same,inhibition,[3],83.3%
same,inhibition,[4],2.5%
same,inhibition,[5],8%
same,inhibition,[6],-3.7%
same,inhibition,[7],0.3%
same,inhibition,[8],-6.7%
same,inhibition,[9],13.8%
same,inhibition,[10],-9.8%
same,inhibition,[11],26.2%
